Experiments:
[1] = molecular target: T1, Avi-KRAS G12V (1-169) GppNHp/RAF1 RBD-3xFLAG (52-151) (Homo sapiens, UniProt P01116, G12V); experiment: Raf1-KRAS G12V-GppNHP disruption HTRF assay (Biological Example 1); format: binding; settings: KRAS G12V, GppNHp-loaded; Table 11
T1 construct: Avi-KRAS G12V (1-169)
Method: (§1) A protein:protein interaction (PPI) Homogeneous Time Resolved Fluorescence (HTRF) assay was used to determine the effectiveness of compounds of the present disclosure in disrupting KRAS protein and effector RAF1 binding.
(§2) The assay buffer included: 50 mM Tris pH 7.5, 100 mM NaCl, 5 mM MgCl2, 0.1% BSA, 0.01% Tween, and 10% DMSO. The bead buffer included: 50 mM Tris pH 7.5, and 0.01% Tween 20. Assay volume of 20 μL was used in a 384 well plate-low volume format.
(§3) The HTRF assay employed the following protocol:
(§4) Protein mix was prepared in assay buffer, and dispensed on plates, 10 μL per well, then incubated for 1 h at room temperature, with 700 rpm shaking, Reagents mix was prepared and dispensed on plates, 10 μL per well, then incubated for 1 h at room temperature, with 700 rpm shaking.
(§5) Data was reported as percentage of activity, with DMSO as 100%. Data was plotted and analyzed using Prism 8.

[2] = molecular target: T2, Avi-KRAS WT (1-169) GppNHp/RAF1 RBD-3xFLAG (52-151) (Homo sapiens, UniProt P01116); experiment: Raf1-KRAS WT-GppNHP disruption HTRF assay (Biological Example 1); format: binding; settings: KRAS WT, GppNHp-loaded; Table 11
T2 construct: Avi-KRAS WT (1-169)
Method: as §1, §2, §3, §4, §5

[3] = molecular target: T3, Avi-KRAS G12D (1-169) GppNHp/RAF1 RBD-3xFLAG (52-151) (Homo sapiens, UniProt P01116, G12D); experiment: Raf1-KRAS G12D-GppNHP disruption HTRF assay (Biological Example 1); format: binding; settings: KRAS G12D, GppNHp-loaded
T3 construct: Avi-KRAS G12D (1-169)
Method: as §1, §2, §3, §4, §5

GP2d cells (KRAS G12D) = experiment: Cell-based pERK HTRF assay in GP2d cell (Biological Example 2); settings: GP2d (KRAS G12D) cells
Method: A pERK assay (Perkin Elmer) was used to determine the effectiveness of compounds in disrupting KRAS G12D protein/effector signaling in cells.
On Day 1, cells (GP2d) were seeded into 96-well plates at 3×10^4 cells/well in 80 μL complete growth media (DMEM, 10% FBS).
(§6) On Day 2, cells were treated with compounds at 0.25% DMSO. The source plate was created with compounds diluted in media at 5-fold the final assay concentration. The compounds were run in a 9-point concentration curve starting at 1 μM or in a 9-point concentration curve starting at 100 nM, with a half-log dilution between concentrations. Twenty μL was transferred onto the cell plates (final volume in wells was 100 μL). Plates were harvested after 60 min incubation by aspirating media and adding kit-supplied 1x supplemented lysis buffer to all wells (50 μL per well). Plates were then placed on a plate shaker and incubated at 850 rpm for an additional 30 min.
Antibody mixture solution was prepared by diluting aliquoted d2 and Eu Cryptate antibodies 1:20 in kit supplied detection buffer, and mixing the diluted antibodies solutions (1:1 v:v).
(§7) Samples were homogenized by pipetting up and down and then transferred (16 μL of cell lysates) from the 96-well cell culture plate to two wells of the HTRF 384-well detection plate containing the antibody solution. Plates were centrifuged (524 g for 1 min) and allowed to incubate between 4 and 24 h at room temperature. Maximum signal is reached after 4 h incubation time and remains stable over a period of 24 hours. Therefore, readings can be made between 4 and 24 h of incubation. Plates were centrifuged again (524 g for Imin), then analyzed on the EnVision plate reader using the following settings: Excitation 320 nm, Bandwidth 75 nm; Emission 615 nm, Bandwidth 85 nm; Gain 100%; Flashes 100; Lag 60 μs.

SW620 cells (KRAS G12V) = experiment: Cell-based pERK HTRF assay in SW620 cell (Biological Example 4)
Method: A pERK assay (Perkin Elmer) was used to determine the effectiveness of compounds in disrupting KRAS G12V protein/effector signaling in cells.
On Day 1, cells (SW620) were seeded into 96-well plates at 3×10^4 cells/well in 80 μL complete growth media (RPMI, 10% FBS).
as §6, with “μM,” for “μM or in a 9-point concentration curve starting at 100 nM,”, “4 h” for “60 min”
Antibody mixture solution was prepared by diluting aliquoted d2 and Eu Cryptate antibodies 1:20 in kit supplied detection buffer and mixing the diluted antibodies solutions (1:1 v:v).
as §7, with “Imin)” for “1 min)”, “Maximum signal is reached after 4 h incubation time and remains stable over a period of 24 hours. Therefore, readings can be made between 4 and 24 h of incubation.” left out, “1 min),” for “Imin),”, “En Vision” for “EnVision”

[4] = SW620 (KRAS G12V) cells, pERK HTRF, class symbols

T2 sequence (P01116 1-169 isoform P01116-2): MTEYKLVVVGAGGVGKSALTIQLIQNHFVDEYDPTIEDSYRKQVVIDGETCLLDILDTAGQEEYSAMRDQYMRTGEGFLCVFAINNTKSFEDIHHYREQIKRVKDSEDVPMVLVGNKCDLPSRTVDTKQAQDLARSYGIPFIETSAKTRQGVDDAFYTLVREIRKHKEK
T1 sequence (P01116 1-169 isoform P01116-2 G12V): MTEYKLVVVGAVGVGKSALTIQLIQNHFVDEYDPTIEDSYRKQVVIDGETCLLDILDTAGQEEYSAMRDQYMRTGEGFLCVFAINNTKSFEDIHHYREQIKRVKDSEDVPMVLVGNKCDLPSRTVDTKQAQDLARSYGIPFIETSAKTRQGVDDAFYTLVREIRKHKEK
T3 sequence (P01116 1-169 isoform P01116-2 G12D): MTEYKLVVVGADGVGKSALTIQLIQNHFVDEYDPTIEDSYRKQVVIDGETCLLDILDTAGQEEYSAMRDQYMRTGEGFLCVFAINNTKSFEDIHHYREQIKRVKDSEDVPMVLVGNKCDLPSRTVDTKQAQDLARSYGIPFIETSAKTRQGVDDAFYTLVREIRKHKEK

Row | IC50 [1] [nM] | IC50 [2] [nM] | IC50 ([3]; Table 11) [nM] | IC50 (GP2d cells (KRAS G12D); GP2d, pERK HTRF) [nM] | SMILES | further results
1 | > 10000 | 1000 to 10000 | 1000 to 10000 |  | Nc1nc2c(-c3c(C(F)(F)F)cc4c(N[C@H]5CCC[C@@H](O)C5)nc(OCC56CCCN5CCC6)nc4c3F)ccc(F)c2s1 (atropisomer, axis not shown) [Compound 67] | 
2 |  |  |  | > 1000 | CN(c1nc(OCC2(CN3CCOCC3)CC2)nc2c(F)c(-c3ccc(F)c4sc(N)nc34)c(C(F)(F)F)cc12)C1CC(O)C1 (stereo not drawn) [Compound 16] | 
3 |  |  | 100 to 1000 |  | CN(c1nc(OC[C@@]23CCCN2C[C@H](F)C3)nc2c(F)c(-c3ccc(F)c4sc(N)c(C#N)c34)c(C(F)(F)F)cc12)[C@@H]1CCN(C(=O)CC#N)C1 (atropisomer, axis not shown) [Compound 102] | IC50 (GP2d cells (KRAS G12D); pERK HTRF): < 100 nM
4 | > 10000 | 1000 to 10000 | > 10000 |  | CO[C@@H]1C[C@@H](COc2nc(N(C)[C@H]3C[C@@H](O)C3)c3cc(C(F)(F)F)c(-c4ccc(F)c5sc(N)nc45)c(F)c3n2)N(C)C1 (atropisomer, axis not shown) [Compound 17] | 
5 |  |  |  |  | CCN(c1nc(OC[C@@]23CCCN2C[C@H](F)C3)nc2c(F)c(-c3ccc(F)c4sc(N)c(C#N)c34)c(C(F)(F)F)cc12)C1CC(C(=O)N(C)C)C1 (stereo partly drawn) [Compound 950] | IC50 (GP2d cells (KRAS G12D); GP2d): < 100 nM; IC50 (SW620 cells (KRAS G12V); Homo sapiens, SW-620, SW620 (KRAS G12V) cells): < 100 nM
6 |  |  |  | 100 to 1000 | CN(c1nc(OC[C@@]23CCCN2C[C@H](F)C3)nc2c(F)c(-c3ccc(F)c4sc(N)c(C#N)c34)c(C(F)(F)F)cc12)C1(CC#N)CC(O)C1 (stereo partly drawn) [Compound 249] | IC50 (SW620 cells (KRAS G12V); SW620 (KRAS G12V) cells, pERK HTRF): 100 to 1000 nM
7 |  |  |  | > 1000 | CO[C@H]1CN2CCC[C@@]2(COc2nc(N(C)C3CC(O)C3)c3cc(C(F)(F)F)c(-c4ccc(F)c5sc(N)nc45)c(F)c3n2)C1 (stereo partly drawn) [Compound 13] | 
8 |  |  |  | < 100 | CN(c1nc(OC[C@@]23CCCN2C[C@H](F)C3)nc2c(F)c(-c3ccc(F)c4sc(N)c(C#N)c34)c(C(F)(F)F)cc12)C1CC(F)C1 (stereo partly drawn) [Compound 160] | 
9 |  |  |  |  | CCN(c1nc(OC[C@@]23CCCN2C[C@H](F)C3)nc2c(F)c(-c3ccc(F)c4sc(N)c(C#N)c34)c(C(F)(F)F)cc12)[C@H]1CCN(C(=O)OC2CC(OC)C2)C1 (stereo partly drawn) [Compound 792] | IC50 (GP2d cells (KRAS G12D); pERK HTRF, class symbols): < 100 nM; IC50 (SW620 cells (KRAS G12V); [4]): < 100 nM; IC50 ([3]; class symbols): < 100 nM
10 | > 10000 | > 10000 | 1000 to 10000 |  | Nc1nc2c(-c3c(C(F)(F)F)cc4c(N5CCCC(CO)C5)nc(OCC56CCCN5CCC6)nc4c3F)ccc(F)c2s1 (stereo not drawn) [Compound 54] | 
11 |  |  |  |  | CCN(c1nc(OC[C@@]23CCCN2C[C@H](F)C3)nc2c(F)c(-c3ccc(F)c4sc(N)c(C#N)c34)c(C(F)(F)F)cc12)[C@H]1C[C@H](C)N(C(=O)[C@@H](C)OC)C1 (atropisomer, axis not shown) [Compound 763] | IC50 (GP2d cells (KRAS G12D); pERK HTRF, class symbols): < 100 nM; IC50 (SW620 cells (KRAS G12V); [4]): < 100 nM; IC50 ([3]; class symbols): 100 to 1000 nM
12 | 1000 to 10000 | 1000 to 10000 | 1000 to 10000 |  | Nc1nc2c(-c3c(C(F)(F)F)cc4c(N5CC6CCC(C5)C6O)nc(OCC56CCCN5CCC6)nc4c3F)ccc(F)c2s1 (stereo not drawn) [Compound 52] | 
13 | 1000 to 10000 | 100 to 1000 | 100 to 1000 |  | CN(c1nc(OCC23CCCN2CCC3)nc2c(F)c(-c3ccc(F)c4sc(N)nc34)c(C(F)(F)F)cc12)[C@H]1C[C@@H](O)C1 (atropisomer, axis not shown) [Compound 2] | 
14 |  |  | > 10000 |  | CN(c1nc(OCC23CCCN2CCC3)nc2c(F)c(-c3ccc(F)c4sc(N)nc34)c(C(F)(F)F)cc12)C1CC(O)C12CCCC2 (single isomer, unassigned) [Compound 11] | 
15 | > 10000 | 1000 to 10000 | > 10000 |  | CN1C[C@H](F)C[C@H]1COc1nc(N(C)[C@H]2C[C@@H](O)C2)c2cc(C(F)(F)F)c(-c3ccc(F)c4sc(N)nc34)c(F)c2n1 (atropisomer, axis not shown) [Compound 12] | 
16 | 1000 to 10000 | 1000 to 10000 | 1000 to 10000 |  | CCN(c1nc(OCC23CCCN2CCC3)nc2c(F)c(-c3ccc(F)c4sc(N)nc34)c(C(F)(F)F)cc12)[C@H]1C[C@@H](O)C1 (atropisomer, axis not shown) [Compound 7] | 
17 | 1000 to 10000 | 1000 to 10000 | 1000 to 10000 |  | CN(c1nc(OCC23CCCN2CCC3)nc2c(F)c(-c3ccc(F)c4sc(N)nc34)c(C(F)(F)F)cc12)[C@H]1C[C@H](O)C1 (atropisomer, axis not shown) [Compound 3] | 
18 | 1000 to 10000 | 100 to 1000 | 100 to 1000 |  | CO[C@H]1CN2CCC[C@@]2(COc2nc(N(C)[C@H]3C[C@@H](O)C3)c3cc(C(F)(F)F)c(-c4ccc(F)c5sc(N)nc45)c(F)c3n2)C1 (atropisomer, axis not shown) [Compound 13] | 
19 |  |  |  | > 1000 | CN(c1nc(OC[C@@H]2C[C@@H](F)CN2C)nc2c(F)c(-c3ccc(F)c4sc(N)nc34)c(C(F)(F)F)cc12)C1CC(O)C1 (stereo partly drawn) [Compound 12] | 
20 | > 10000 | 1000 to 10000 | 1000 to 10000 |  | CN(c1nc(OCC23CCCN2CCC3)nc2c(F)c(-c3ccc(F)c4sc(N)nc34)c(-c3ccoc3)cc12)[C@H]1C[C@@H](O)C1 [Compound 6] | 
21 | > 10000 | 1000 to 10000 | 1000 to 10000 |  | Nc1nc2c(-c3c(C(F)(F)F)cc4c(N[C@H]5CC[C@H](O)C5)nc(OCC56CCCN5CCC6)nc4c3F)ccc(F)c2s1 (atropisomer, axis not shown) [Compound 61] | 
22 |  |  |  | > 1000 | CN(c1nc(OCC23CCCN2CCC3)nc2c(F)c(-c3ccc(F)c4sc(N)nc34)c(C(F)(F)F)cc12)C1CC(O)C1 (stereo not drawn) [Compound 2] | 
23 |  |  |  | > 1000 | CO[C@H]1CN2CCC[C@]2(COc2nc(N(C)C3CC(O)C3)c3cc(C(F)(F)F)c(-c4ccc(F)c5sc(N)nc45)c(F)c3n2)C1 (stereo partly drawn) [Compound 14] | 
24 |  |  |  | 100 to 1000 | CN(c1nc(OC[C@@]23CCCN2C[C@H](F)C3)nc2c(F)c(-c3ccc(F)c4sc(N)nc34)c(C(F)(F)F)cc12)C1CC(O)C1 (stereo partly drawn) [Compound 8] | 
25 |  |  | 100 to 1000 |  | CCN(CCCO)c1nc(OC[C@@]23CCCN2C[C@H](F)C3)nc2c(F)c(-c3ccc(F)c4sc(N)c(C#N)c34)c(C(F)(F)F)cc12 [Compound 75] | IC50 (GP2d cells (KRAS G12D); pERK HTRF): < 100 nM
26 |  |  |  | > 1000 | CO[C@@H]1C[C@@H](COc2nc(N(C)C3CC(O)C3)c3cc(C(F)(F)F)c(-c4ccc(F)c5sc(N)nc45)c(F)c3n2)N(C)C1 (stereo partly drawn) [Compound 17] | 
27 |  |  |  | < 100 | CN(c1nc(OCC2(CN3CCOCC3)CC2)nc2c(F)c(-c3ccc(F)c4sc(N)c(C#N)c34)c(C(F)(F)F)cc12)C1CC(O)C1 (stereo not drawn) [Compound 122] | 

Reference: patent US20260042764A1, “COMPOSITIONS AND METHODS FOR INHIBITION OF KRAS” (TheRas, Inc., priority 2022, published 2026)
